Read-outs that look alike come from different tables or passages of the source.
How the values were obtained:
[1] = system: human CYP2C19; conditions: 30 min incubation with CYP2C19; cited from earlier work
[2] = rats; cited from earlier work
[3] = system: B. subtilis; test: B. subtilis growth inhibition assay; assay type: cell-based, Bacillus subtilis; conditions: read-out: Bs IC50
[4] = calculated, Pipeline Pilot program; cited from earlier work
[5] = system: human CYP2D6; conditions: 30 min incubation with CYP2D6; cited from earlier work
[6] = for Rabbit 1 concentration in lung tissue / Rabbit 2 concentration in lung tissue: in vivo; for amount formed on a per-site basis in lung tissue: lung concentration divided by number of equivalent adamantyl sites
[7] = system: M. tuberculosis H37Rv; test: M. tuberculosis growth inhibition assay; conditions: read-out: Mtb IC90; concentration that inhibits 90% of growth, OD600, 5 days; ± standard error
[8] = system: E. coli (K12); test: E. coli growth inhibition assay; assay type: cell-based, Escherichia coli; conditions: read-out: Ec IC50
[9] = dogs; cited from earlier work
[10] = system: M. smegmatis; test: M. smegmatis growth inhibition assay; assay type: cell-based, Mycobacterium smegmatis; conditions: read-out: Ms IC50, OD600, 48 h, ± standard error
[11] = growth inhibition, OD600, 12 h, ± standard error

Compound | SQ109 remaining [1] [%] | [14C-SQ109] half-life [2] [h] | IC50 ([3]; Bacillus subtilis, 12 h) [µM] | pKa (adamantylamine NH) [4] | pKa (geranylamine NH) [4] | SQ109 remaining [5] [%] | Rabbit 1 concentration in lung tissue ([6]; female, New Zealand White) | Rabbit 2 concentration in lung tissue ([6]; female, New Zealand White) | IC90 [7] [µM] | IC50 ([8]; Escherichia coli, 12 h) [µM] | [14C-SQ109] half-life [9] [h] | IC50 [10] [µM] | IC50 [3, 11] [µM] | Rabbit 1 concentration in lung tissue [6] | Rabbit 2 concentration in lung tissue [6] | IC50 [8, 11] [µM] | amount formed on a per-site basis in lung tissue [6]
CC(C)=CCC/C(C)=C/CNCCNC1C2CC3CC(C2)CC1C3 (stereo not drawn) [Compound 1, SQ109] | 45 | > 5 | 16 ± 0.14 | 12.7 | 5.63 | 0.8 | 37000 (4600) ng/g | 45000 (21000) ng/g | 1 ± 0.05 | 15 ± 0.26 | > 5 | – | – | – | – | – | –
NCCNC1C2CC3CC(C2)CC1C3 (stereo not drawn) [Compound 7, N′-adamantylethylenediamine] | – | – | – | – | – | – | – | – | > 25 | – | – | > 500 | > 500 | 5500 (360) ng/g | 7700 (2200) ng/g | > 500 | –
C/C(=C\CC/C(C)=C/CNCCNC1C2CC3CC(C2)CC1C3)CO (stereo not drawn) [Compound 9, (2E,6E)-8-((2-(((1r,3r,5r,7r)-Adamantan-2-yl)amino)ethyl)-amino)-2,6-dimethylocta-2,6-dien-1-ol] | – | – | – | – | – | – | – | – | > 24 | – | – | 55 ± 1.4 | > 500 | 720 (47) ng/g | 850 (190) ng/g | 267 ± 4.3 | –
C/C(=C\CNCCNC1C2CC3CC(C2)CC1C3)CCC(=O)C(C)C (stereo not drawn) [Compound 12, (E)-8-((2-(((1r,3r,5r,7r)-adamantan-2-yl)amino)-ethyl)amino)-2,6-dimethyloct-6-en-3-one] | – | – | – | – | – | – | – | – | 17 ± 4.5 | – | – | 22 ± 1.5 | 176 ± 5.1 | 91 (20) ng/g | 220 (110) ng/g | 57 ± 2.3 | –
CC(C)=CCC/C(C)=C/C=O [Compound 13, geranial] | – | – | – | – | – | – | – | – | > 25 | – | – | > 500 | > 500 | BLQ | BLQ | > 500 | –
CC(C)=CCC/C(C)=C/C(=O)O [Compound 14, geranic acid] | – | – | > 500 | – | – | – | – | – | > 25 | > 500 | – | – | – | BLQ | BLQ | – | –
CC(C)=CCC/C(C)=C/C=NO [Compound 15a, geranial oxime] | – | – | – | – | – | – | – | – | > 25 | – | – | > 500 | > 500 | BLQ | BLQ | > 500 | –
ON=C1C2CC3CC(C2)CC1C3 [Compound 16, adamantan-2-one oxime] | – | – | > 500 | – | – | – | – | – | > 25 | > 500 | – | – | – | BLQ | BLQ | – | –
CC(C)=CCC/C(C)=C/CN [Compound 17, geranylamine] | – | – | – | – | – | – | – | – | > 25 | – | – | > 500 | > 500 | BLQ | BLQ | > 500 | –
NC1C2CC3CC(C2)CC1C3 (stereo not drawn) [Compound 18, 2-aminoadamantane] | – | – | > 500 | – | – | – | 170(49) ng/g | 270(27) ng/g | > 25 | > 500 | – | – | – | – | – | – | –
O=C1C2CC3CC(C2)CC1C3 [Compound 19, 2-adamantanone] | – | – | > 500 | – | – | – | – | – | > 25 | > 500 | – | – | – | – | – | – | –
CC(C)=CCC/C(C)=C/CNCCN [Compound 20, geranylethylenediamine] | – | – | – | – | – | – | – | – | > 25 | – | – | > 500 | > 500 | 310(14) ng/g | 330 (54) ng/g | > 500 | –
CC(C)=CCC/C(C)=C/CNCCNC1C2CC3CC1CC(C2)C3O (stereo not drawn) [Compound 23, (1r,3r,5r,7r)-6-((2-(((E)-3,7-Dimethylocta-2,6-dien-1-yl)-amino)ethyl)amino)adamantan-2-ol] | – | – | – | – | – | – | – | – | > 25 | – | – | 68 ± 2.5 | 184 ± 4.5 | 1200 (210) ng/g | 3500 (1200) ng/g | 52 ± 2.5 | 6.8 µM
CC(C)=CCC/C(C)=C/CNCCNC1[C@H]2C[C@@H]3C[C@H](C2)C(O)[C@H]1C3 (stereo partly drawn) [Compound 24, (1R,3S,5S,7R)-4-((2-(((E)-3,7-Dimethylocta-2,6-dien-1-yl)-amino)ethyl)amino)adamantan-2-ol] | – | – | 166 ± 0.5 | – | – | – | 820 (170) ng/g | 2100 (680) ng/g | 6.2 ± 0.27 | 158 ± 4.5 | – | – | – | – | – | – | ~ 1 μM

Source: article PMC8918016 (ACS infectious diseases, 2021)
